# Legend:
# U251 cells [1] = test: Effects on cell growth (cell number/ml, Z2 Coulter Counter); type: cell-based, human; settings: after 72 hours of cell culture, effect of 1 significant only at 10 µM, lipofectamine within 0.5–12 μl/ml
# Experimental: (§1) Cell viability after the transfection with 1 was evaluated with Muse Count & Viability Kit (Millipore, Billerica, Massachusetts, USA), using Muse Cell Analyser (Millipore, Billerica, Massachusetts, USA). To perform analysis, 50 µL of suspension cells were added to 225 µL of Muse Count & Viability Reagent, the solution was incubated at room temperature for 5 minutes, protected from the light and then 1 × 10^3 events were analysed using Muse Cell Analyser (Millipore, Billerica, Massachusetts, USA). The effects on cell growth were studied by determining the cell number/ml using a Z2 Coulter Counter (Coulter Electronics, Hialeah, FL, USA). The effects of calixarene 1 on cell viability, cell growth and cell morphology were compared to those of Lipofectamine RNAiMAX (Invitrogen, Monza, Italy).
# (§2) Comparison was done with the effects of lipofectamine analyzed after 72 hours of cell culture. […] These findings are in agreement with the cell morphology profile shown in Fig. 2(D–F) and determined by microscopic inspection after 72 hours of cell culture in the presence of 2.5 µM calixarene 1 (Fig. 2E), 3μL/mL lipofectamine (Fig. 2F) or in the absence of both the delivery systems (Fig. 2D).
# U251 cells [2] = test: Cell morphology by microscopic inspection; type: cell-based, human; settings: 72 hours of cell culture, 2.5 µM calixarene 1 or 3μL/mL lipofectamine
# Experimental: as §1, §2
# Fl-a221PNA = test: Fluorescence titration of Fl-a221PNA with calixarene 1; type: binding; settings: Fl-a221PNA 2 μM, HEPES 16 mM, NaCl 40 mM, pH 7.4, λex = 494 nm, 1 added stepwise up to 9.9 μM
# Experimental: For a fast evaluation of the interaction with PNA, fluorescently labelled Fl-a221PNA (Fl: Fluorescein) was diluted to a final concentration of 2 μM in buffer (HEPES 16 mM, NaCl 40 mM, pH 7.4) and placed in a fluorescence cuvette; to this, a concentrated solution of the argininocalix[4]arene 1 (100 μM in EtOH/H2O/DMSO = 2/2/1 v/v/v) was added stepwise (up to a final concentration of 9.9 μM of calixarene), and changes in the fluorescein emission intensity (with λex = 494 nm) were measured after each addition. Correction for lamp fluctuation was performed by measuring the fluorescence of a standard 2 μM fluorescein solution after each spectra; this correction and that for dilution were performed using the formula: Fi, corr = Fi,obs × (Fin /Fi) × (Vi /Vin), where Fi: intensity at the ith point and Fin: initial intensity of the fluorescein standard, Vi: total volume at the ith point and Vin: initial volume.
# In order to rule out that the observed delivery was solely due to permeabilization of cells caused by the argininocalixarene, without interaction between the carrier and the PNA, Fl-a221PNA was titrated in vitro in buffer by adding 1 and measuring the changes in fluorescence emission (Fig. 4). […] A slight shift of the fluorescence maximum (from 519 to 523 nm) was also observed, consistent with a more polar microenvironment generated by the cationic calixarene.
# miR-221-3p = test: RT-qPCR hybridization to miR-221-3p probe; type: cell-based, human; settings: U251 cells, 48 hours, calixarene 1 at 2.5 μM, PNAs at 2 μM
# Experimental: The human glioma U251 cells[50] were cultured in humidified atmosphere of 5% CO2/air in RPMI-1640 medium (Gibco, Life Technologies, Monza, Italy) supplemented with 10% (v/v) fetal bovine serum (FBS, Biowest, Nuaillé, France), 100 units/mL penicillin and 100 µg/mL streptomycin (Pen-Strep, Sigma-Aldrich, Saint Louis, Missouri, USA). All PNA transfection procedures were performed under the conditions described here below. Briefly, a mixture constituted by RPMI-1640 medium containing calixarene 1 at 2.5 µM final concentration, and 2 µM PNA was prepared and incubated for 20 minutes at room temperature, without serum. After the incubation, 10% (v/v) of FBS was added. […]
# For miRNAs quantification, obtained RNA was reverse transcribed using TaqMan MicroRNA Reverse Transcription Kit (Applied Biosystems, Foster City, CA, USA) and miRNA specific stem-loop primer (hsa-miR-96-5p, ID: 000186; hsa-miR-155-5p, ID: 002623; hsa-miR-210-3p, ID: 000512; hsa-miR-221-3p, ID: 000524). Reverse transcription quantitative polymerase-chain reaction (RT-qPCR) was performed according to the manufacturer’s protocols and as indicated elsewhere. […] The relative expression was calculated using the comparative cycle threshold method (ΔΔCT) and U6 snRNA (hsa U6 snRNA, ID:001973) and hsa-let-7c (hsa-let-7c, ID:000379) as endogenous controls. […]
# U251 cells [3] = test: Cell viability assay (Muse Count & Viability Kit); type: cell-based, human; settings: in contact for all the treatment time
# Experimental: The human glioma U251 cells[50] were cultured in humidified atmosphere of 5% CO2/air in RPMI-1640 medium (Gibco, Life Technologies, Monza, Italy) supplemented with 10% (v/v) fetal bovine serum (FBS, Biowest, Nuaillé, France), 100 units/mL penicillin and 100 µg/mL streptomycin (Pen-Strep, Sigma-Aldrich, Saint Louis, Missouri, USA). All PNA transfection procedures were performed under the conditions described here below. Briefly, a mixture constituted by RPMI-1640 medium containing calixarene 1 at 2.5 µM final concentration, and 2 µM PNA was prepared and incubated for 20 minutes at room temperature, without serum. After the incubation, 10% (v/v) of FBS was added. Cell culture medium was removed and replaced with the transfection mixture, which was maintained in contact with cells until the end of the treatment.
# as §1
# One of the major issues associated with the use of commercial available vehicles is the high toxicity of these compounds. For such reason 1 was first evaluated for its effect on cell viability when used to transfect molecules. […] Viability profile was determined at three different time points, 24, 48 and 72 hours after transfection, with three different concentrations of […], 1.25, 2.5, and 10 μM. […]
substance,measurement,setting,value
tetraargininocalix[4]arene [compound 1],effect on cell proliferation (cell growth),U251 cells [1],minor
same,effect on cell morphology,U251 cells [2],does not affect cell morphology
same,concentration of carrier at saturation of fluorescence quenching,Fl-a221PNA,2.5 µM
same,effect on miR-221-3p hybridization signal,miR-221-3p,no effects
same,percentage of total live cells,"U251 cells [3]; 1.25 µM of 1, 24 hours after the transfection",no differences
same,percentage of total live cells,"U251 cells [3]; 2.5 µM of 1, 24 hours after the transfection",no differences
same,live cells percentage,"U251 cells [3]; 10 µM of 1, 24 hours after the transfection",slight decrease
